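Cells were grown in 96-well plates and exposed to each compound for 48 hours at five concentrations; endpoints were interpolated linearly between bracketing concentrations, or set to the highest concentration if not reached. Here, GI50 denotes the concentration required for 50% inhibition of growth. The concentration for full growth arrest is given as TGI.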
Tests used:
Assay in all cases: DTP human tumour cell line panel, 48 h
A498 renal = tested on: A498 renal
SK-OV-3 ovarian = tested on: SK-OV-3 ovarian
MOLT-4 leukemia = tested on: MOLT-4 leukemia
HCT-15 colon = tested on: HCT-15 colon
SF-539 CNS = tested on: SF-539 CNS
NCI-H460 lung = tested on: NCI-H460 lung
DU-145 prostate = tested on: DU-145 prostate
HOP-62 NSCLC = tested on: HOP-62 NSCLC
ACHN renal = tested on: ACHN renal
NCI/ADR-RES ovarian = tested on: NCI/ADR-RES ovarian
T-47D breast = tested on: T-47D breast
BT-549 breast = tested on: BT-549 breast
M14 melanoma = tested on: M14 melanoma
CCRF-CEM leukemia = tested on: CCRF-CEM leukemia
SW-620 colon = tested on: SW-620 colon
SN12C renal = tested on: SN12C renal
OVCAR-8 ovarian = tested on: OVCAR-8 ovarian
HT29 colon = tested on: HT29 colon
MCF7 breast = tested on: MCF7 breast
786-0 renal = tested on: 786-0 renal
SK-MEL-28 melanoma = tested on: SK-MEL-28 melanoma
NCI-H23 lung = tested on: NCI-H23 lung
NCI-H226 lung = tested on: NCI-H226 lung
U251 CNS = tested on: U251 CNS
UO-31 renal = tested on: UO-31 renal
RPMI-8226 leukemia = tested on: RPMI-8226 leukemia
HL-60(TB) leukemia = tested on: HL-60(TB) leukemia
NCI-H522 lung = tested on: NCI-H522 lung
LOX IMVI melanoma = tested on: LOX IMVI melanoma
SF-268 CNS = tested on: SF-268 CNS
SR leukemia = tested on: SR leukemia
SK-MEL-2 melanoma = tested on: SK-MEL-2 melanoma
SF-295 CNS = tested on: SF-295 CNS
OVCAR-5 ovarian = tested on: OVCAR-5 ovarian
K-562 leukemia = tested on: K-562 leukemia
SNB-75 CNS = tested on: SNB-75 CNS
HS 578T breast = tested on: HS 578T breast
HCT-116 colon = tested on: HCT-116 colon
A549 NSCLC = tested on: A549 NSCLC
UACC-257 melanoma = tested on: UACC-257 melanoma
OVCAR-3 ovarian = tested on: OVCAR-3 ovarian
IGROV1 ovarian = tested on: IGROV1 ovarian
COLO 205 colon = tested on: COLO 205 colon
MDA-MB-435 = tested on: MDA-MB-435
MDA-MB-231 breast = tested on: MDA-MB-231 breast
PC-3 prostate = tested on: PC-3 prostate
SK-MEL-5 melanoma = tested on: SK-MEL-5 melanoma
CAKI-1 renal = tested on: CAKI-1 renal
OVCAR-4 ovarian = tested on: OVCAR-4 ovarian
KM12 colon = tested on: KM12 colon
SNB-19 CNS = tested on: SNB-19 CNS

NCCSC(c1ccccc1)(c1ccccc1)c1ccccc1
GI50 (A498 renal): 1030 nM | TGI (A498 renal): 8390 nM | GI50 (SK-OV-3 ovarian): 512 nM | TGI (SK-OV-3 ovarian): 12500 nM | GI50 (MOLT-4 leukemia): 2300 nM | TGI (MOLT-4 leukemia): 7100 nM | GI50 (HCT-15 colon): 409 nM | TGI (HCT-15 colon): 1750 nM | GI50 (SF-539 CNS): 1360 nM | TGI (SF-539 CNS): 3210 nM | GI50 (NCI-H460 lung): 1310 nM | TGI (NCI-H460 lung): 4010 nM | GI50 (DU-145 prostate): 2320 nM | TGI (DU-145 prostate): 6070 nM | GI50 (HOP-62 NSCLC): 2430 nM | TGI (HOP-62 NSCLC): 14200 nM | GI50 (ACHN renal): 1480 nM | TGI (ACHN renal): 11200 nM | GI50 (NCI/ADR-RES ovarian): 1860 nM | TGI (NCI/ADR-RES ovarian): 5710 nM | GI50 (T-47D breast): 2620 nM | TGI (T-47D breast): 8420 nM | GI50 (BT-549 breast): 3510 nM | TGI (BT-549 breast): 14200 nM | GI50 (M14 melanoma): 354 nM | TGI (M14 melanoma): 1150 nM | GI50 (CCRF-CEM leukemia): 1850 nM | TGI (CCRF-CEM leukemia): 6000 nM | GI50 (SW-620 colon): 558 nM | TGI (SW-620 colon): 2480 nM | GI50 (SN12C renal): 739 nM | TGI (SN12C renal): 11700 nM | GI50 (OVCAR-8 ovarian): 989 nM | TGI (OVCAR-8 ovarian): 7000 nM | GI50 (HT29 colon): 1950 nM | TGI (HT29 colon): 4230 nM | GI50 (MCF7 breast): 354 nM | TGI (MCF7 breast): 1780 nM | GI50 (786-0 renal): 1220 nM | TGI (786-0 renal): 12100 nM | GI50 (SK-MEL-28 melanoma): 1640 nM | TGI (SK-MEL-28 melanoma): 3340 nM | GI50 (NCI-H23 lung): 3380 nM | TGI (NCI-H23 lung): 13600 nM | GI50 (NCI-H226 lung): 4790 nM | TGI (NCI-H226 lung): 22700 nM | GI50 (U251 CNS): 373 nM | TGI (U251 CNS): 1720 nM | GI50 (UO-31 renal): 2030 nM | TGI (UO-31 renal): 12900 nM | GI50 (RPMI-8226 leukemia): 1110 nM | TGI (RPMI-8226 leukemia): 4190 nM | GI50 (HL-60(TB) leukemia): 879 nM | TGI (HL-60(TB) leukemia): 3030 nM | GI50 (NCI-H522 lung): 369 nM | TGI (NCI-H522 lung): 1700 nM | GI50 (LOX IMVI melanoma): 1420 nM | TGI (LOX IMVI melanoma): 2900 nM | GI50 (SF-268 CNS): 966 nM | TGI (SF-268 CNS): 11200 nM | GI50 (SR leukemia): 340 nM | TGI (SR leukemia): 1820 nM | GI50 (SK-MEL-2 melanoma): 1180 nM | TGI (SK-MEL-2 melanoma): 2720 nM | GI50 (SF-295 CNS): 967 nM | TGI (SF-295 CNS): 2760 nM | GI50 (OVCAR-5 ovarian): 1920 nM | TGI (OVCAR-5 ovarian): 6950 nM | GI50 (K-562 leukemia): 322 nM | TGI (K-562 leukemia): 1610 nM | GI50 (SNB-75 CNS): 1730 nM | TGI (SNB-75 CNS): 5310 nM | GI50 (HS 578T breast): 1090 nM | TGI (HS 578T breast): 5290 nM | GI50 (HCT-116 colon): 373 nM | TGI (HCT-116 colon): 1490 nM | GI50 (A549 NSCLC): 742 nM | TGI (A549 NSCLC): 6030 nM | GI50 (UACC-257 melanoma): 1130 nM | TGI (UACC-257 melanoma): 2680 nM | GI50 (OVCAR-3 ovarian): 1520 nM | TGI (OVCAR-3 ovarian): 6130 nM | GI50 (IGROV1 ovarian): 1250 nM | TGI (IGROV1 ovarian): 8320 nM | GI50 (COLO 205 colon): 435 nM | TGI (COLO 205 colon): 1690 nM | GI50 (MDA-MB-435): 242 nM | TGI (MDA-MB-435): 550 nM | GI50 (MDA-MB-231 breast): 607 nM | TGI (MDA-MB-231 breast): 2330 nM | GI50 (PC-3 prostate): 1360 nM | TGI (PC-3 prostate): 11500 nM | GI50 (SK-MEL-5 melanoma): 1010 nM | TGI (SK-MEL-5 melanoma): 2250 nM | GI50 (CAKI-1 renal): 3510 nM | TGI (CAKI-1 renal): 16100 nM | GI50 (OVCAR-4 ovarian): 2940 nM | TGI (OVCAR-4 ovarian): 12900 nM | GI50 (KM12 colon): 1840 nM | TGI (KM12 colon): 4820 nM | GI50 (SNB-19 CNS): 5360 nM | TGI (SNB-19 CNS): 20100 nM

— PubChem BioAssay (NCI)
